This test has as its target T1, Human μ-calpain (Homo sapiens, UniProt P07384).
T1 construct: Human μ-calpain is isolated from erythrocytes; from tissue; host or cells: human erythrocytes
T1 sequence (P07384 1-714): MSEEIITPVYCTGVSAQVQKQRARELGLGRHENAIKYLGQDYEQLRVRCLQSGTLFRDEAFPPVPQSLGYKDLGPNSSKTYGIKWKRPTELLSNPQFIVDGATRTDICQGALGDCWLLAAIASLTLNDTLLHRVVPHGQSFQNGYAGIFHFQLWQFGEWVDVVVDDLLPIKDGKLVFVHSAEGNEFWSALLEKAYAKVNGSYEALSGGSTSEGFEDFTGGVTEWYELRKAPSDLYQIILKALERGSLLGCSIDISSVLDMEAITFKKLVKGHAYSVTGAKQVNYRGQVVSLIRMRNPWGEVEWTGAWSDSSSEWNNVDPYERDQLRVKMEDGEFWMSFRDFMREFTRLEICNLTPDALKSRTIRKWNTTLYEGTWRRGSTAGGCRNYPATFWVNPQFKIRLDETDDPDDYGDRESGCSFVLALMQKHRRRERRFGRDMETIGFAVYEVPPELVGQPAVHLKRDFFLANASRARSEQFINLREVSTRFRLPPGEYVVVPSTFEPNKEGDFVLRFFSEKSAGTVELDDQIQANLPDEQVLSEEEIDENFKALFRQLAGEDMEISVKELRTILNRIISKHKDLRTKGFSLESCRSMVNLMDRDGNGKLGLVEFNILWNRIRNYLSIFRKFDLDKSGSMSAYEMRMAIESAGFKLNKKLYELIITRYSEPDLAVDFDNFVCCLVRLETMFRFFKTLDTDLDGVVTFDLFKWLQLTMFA
T1 sequence (P04632 1-268 partner): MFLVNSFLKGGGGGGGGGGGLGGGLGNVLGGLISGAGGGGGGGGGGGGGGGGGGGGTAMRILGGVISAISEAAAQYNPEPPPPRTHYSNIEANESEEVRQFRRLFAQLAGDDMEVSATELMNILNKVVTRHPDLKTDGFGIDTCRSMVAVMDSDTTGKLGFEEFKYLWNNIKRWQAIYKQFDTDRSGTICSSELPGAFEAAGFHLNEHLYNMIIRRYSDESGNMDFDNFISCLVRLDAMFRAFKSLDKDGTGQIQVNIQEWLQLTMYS
The test is described as follows: Calpain I and II test (fluorogenic substrate Suc-Leu-Tyr-AMC). In kind it is biochemical. The method, then:
The inhibitory properties of calpain inhibitors were studied in a buffer containing 50 mM of Tris-HCl, pH 7.5; 0.1 M of NaCl; 1 mM of dithiotreithol; 0.11 mM of CaCl2, using the fluorogenic calpain substrate Suc-Leu-Tyr-AMC (25 mM dissolved in DMSO, Bachem/Switzerland) (Sasaki et al. J. Biol. Chem. 1984, Vol. 259, 12489-12494). Human μ-calpain is isolated from erythrocytes similarly to the methods of Croall and DeMartino (BBA 1984, Vol. 788, 348-355) and Graybill et al. (Bioorg. & Med. Lett. 1995, Vol. 5, 387-392). After several chromatographic steps (DEAE-Sepharose, Phenyl-Sepharose, Superdex 200 and Blue-Sepharose), the enzyme is obtained in a purity of <[sic] 95%, according to SDS-PAGE, Western blot analysis and N-terminal sequencing. The fluorescence of the cleavage product 7-amino-4-methylcoumarin (AMC) is monitored in a Spex-Fluorolog fluorimeter at λex =380 nm an λem =460 nm. Over a measured range of 60 min, the cleavage of the substrate is linear and the autocatalytic activity of calpain is low when the experiments are carried out at 12° C. (see Chatterjee et al. 1996, Bioorg. & Med. Chem. Lett., Vol 6, 1619-1622). […]
In a typical experiment, 10 μl of substrate (250 μm final) and then 10 μl of μ-calpain (2 μg/ml final, i.e. 18 nM) are added to a 1 ml cuvette containing buffer. The calpain-mediated cleavage of the substrate is measured for 15 to 20 min. […]

Here are results for one compound from patent publication US6251917A, “Benzamidoaldehydes and their use as cysteine protease inhibitors” (BASF Aktiengesellschaft, priority 1996, dated 2001).

Where only a bound is given, the exact number is not on record here.

What is called Ki is a dissociation constant, usually derived from enzyme kinetics or from competition with a known ligand. A lower Ki goes with tighter binding. `O=C[C@H](Cc1ccccc1)NC(=O)c1ccccc1-c1ccccc1` [Example 30, (S)-2-Phenyl-N-(3-phenylpropan-1-al-2-yl)benzamide]: the “effectiveness compared with N-(1-3-phenylpropan-1-al-2-yl)benzamide” value (comparison with literature compound (M. R. Angelastro et al., J. Med. Chem. 1990, 33, 11-13)) is reported as “significantly more effective”. Also, the Ki (reversible inhibition, 12° C., pH 7.5) was below 500 nM.
